Data taken from patent publication US20220073496A1, “NOVEL QUINOLINE DERIVATIVE INHIBITOR” (Nanjing Transthera Biosciences Co., Ltd., priority 2018, published 2022).

Assays:
[1] = Stability in liver microsome of mice; assay type: in vitro ADME; conditions: liver microsomes; Mouse liver microsome 0.5 mg protein/mL, compound 1 μM, 37° C.
Experimental: Assay 1: Stability assessment of the compounds of the present invention in liver microsome of mice and dogs
(§1) Test substances: the compounds of the present invention, wherein the structures and preparations thereof were as described above.
The composition of the incubation system:
Preparation of Test Substances:
An appropriate amount of the compound was accurately weighed and dissolved in DMSO to prepare a 5.0 mM stock solution. The 5.0 mM stock solution was diluted to 1.0 mM with DMSO, and finally diluted with water to a 10 μM test substance working solution for use (the DMSO content in the reaction system was 0.1%).
(1) The liver microsome (20 mg protein/mL) was taken out from the −80° C. refrigerator, pre-incubated at 37° C. with a water-bathing constant temperature vibrator for 3 minutes, and melted for use.
(2) A mixed solution of the incubation system (excluding compounds and β-NADPH) according to the above “composition of the incubation system” for the assay was prepared, and pre-incubated at 37° C. with a water-bathing constant temperature vibrator for 2 minutes.
(3) Control group (excluding β-NADPH): 30 μL of water and 30 μL of compound working solution (10 μM) were added to 240 μL of the mixed solution of the incubation system of step (2), and vortexed for 30 seconds to mix well. The total reaction volume was 300 μL. A duplicate sample was prepared. The sample was incubated at 37° C. with a water-bathing constant temperature vibrator. The timekeeping began and the sampling time points were set at 0 minute and 60 minutes.
(4) Sample group: 70 μL of β-NADPH solution (10 mM) and 70 μL of compound working solution (10 μM) were added to 560 μL of the mixed solution of step (2). The total reaction volume was 700 μL. The resulting mixture was vortexed for 30 seconds to mix well. A duplicate sample was prepared. The sample was incubated at 37° C. with a water-bathing constant temperature vibrator. The timekeeping began and the sampling time points were set at 0 minute, 5 minutes, 10 minutes, 20 minutes, 30 minutes, and 60 minutes after timekeeping.
(5) After vortexing for 3 minutes, the sample was centrifuged at 4000 rpm for 10 minutes.
(6) 50 μL of the supernatant was taken and 150 μL of water was added. The resulting mixture was vortexed to mix well, and analyzed by LC/MS/MS.
The half-life (t1/2) and clearance rate (Cl) were calculated using the following first-order kinetic formula:
Vd=1/protein content in liver microsome
Note: k was the slope of the logarithm of the remaining amount of the compound versus time, and Vd was the apparent distribution volume.

Mer (h) = target: T1, Mer (h) (Homo sapiens, UniProt Q12866); test: Enzymatic activity test, Mer (h); assay type: biochemical; conditions: 10 μM [γ-33P]-ATP, 40 minutes, room temperature
T1 construct: purchased
T1 sequence (Q12866 21-999): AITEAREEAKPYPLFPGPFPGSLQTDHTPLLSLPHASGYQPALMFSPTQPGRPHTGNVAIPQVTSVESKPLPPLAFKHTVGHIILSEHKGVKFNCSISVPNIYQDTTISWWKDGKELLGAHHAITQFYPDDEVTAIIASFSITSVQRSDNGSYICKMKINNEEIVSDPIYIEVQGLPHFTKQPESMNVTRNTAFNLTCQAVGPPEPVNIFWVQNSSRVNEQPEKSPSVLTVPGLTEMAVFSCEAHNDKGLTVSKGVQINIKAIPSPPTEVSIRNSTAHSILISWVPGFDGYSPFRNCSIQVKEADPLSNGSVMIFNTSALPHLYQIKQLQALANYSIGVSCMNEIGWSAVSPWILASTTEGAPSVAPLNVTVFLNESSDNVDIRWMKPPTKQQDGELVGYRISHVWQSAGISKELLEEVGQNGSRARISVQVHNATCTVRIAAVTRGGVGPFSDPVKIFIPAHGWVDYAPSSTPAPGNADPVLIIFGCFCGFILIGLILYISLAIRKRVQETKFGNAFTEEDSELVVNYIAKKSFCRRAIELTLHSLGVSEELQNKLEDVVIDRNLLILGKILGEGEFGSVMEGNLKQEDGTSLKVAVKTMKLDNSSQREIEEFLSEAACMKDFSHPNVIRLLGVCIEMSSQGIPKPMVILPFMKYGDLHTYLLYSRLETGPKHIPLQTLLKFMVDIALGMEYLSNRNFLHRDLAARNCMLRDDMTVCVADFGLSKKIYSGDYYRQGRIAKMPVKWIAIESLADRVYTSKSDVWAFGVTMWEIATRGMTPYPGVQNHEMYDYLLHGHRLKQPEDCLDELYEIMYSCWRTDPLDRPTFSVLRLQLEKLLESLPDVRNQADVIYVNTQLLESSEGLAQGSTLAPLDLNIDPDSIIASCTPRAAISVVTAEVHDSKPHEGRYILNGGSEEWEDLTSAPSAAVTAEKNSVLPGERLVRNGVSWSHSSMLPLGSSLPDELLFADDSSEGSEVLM
Experimental: Assay 3: Enzymatic Activity Test of the Compounds of the Present Invention
as §1
(1) Preparation of the Compound Stock Solution
The compound was dissolved in 100% DMSO to prepare a stock solution with a maximum concentration of 500 μM.
(2) Preparation of the Compound Working Solution
The compound stock solution was diluted to final concentrations of 500, 150, 50, 15, 5, 1.5, 0.5, 0.15 and 0.05 μM to become the compound working solutions (50×).
(3) Preparation of Different Enzyme Reaction Solutions
The Mer (h) enzyme was dissolved in 8 mM MOPS (pH 7.0), 0.2 mM EDTA, 30 mM NaCl, and 250 μM GGMEDIYFEFIVIGGKKK to prepare an enzyme solution having a final concentration of 3.1 nM. The enzymatic reaction was activated by using 10 mM magnesium acetate and 10 μM [γ-^33P]-ATP to form an Mg/ATP mixed solution.
In a 384-well plate, the compound working solution was added to final concentrations of 10000, 3000, 1000, 300, 100, 30, 10, 3, and 1 nM. Then different enzyme reaction solutions prepared according to the above conditions were added. The incubation was carried out for 40 minutes at room temperature. The test was terminated by the addition of a 0.5% phosphoric acid solution. 10 μL of the reaction solution was taken and dropped to the P30 filter paper. The filter paper was washed 4 times with 0.425% phosphoric acid solution and once with methanol, and then placed on a scintillation counter. The […] IC50 values were calculated using GraphPad 5.0 software.

| Structure (SMILES) | half-life at 1 μM [1] | microsomal CLint at 1 μM [1] | IC50 (Mer (h)) |
| --- | --- | --- | --- |
| COc1cc2nccc(Oc3ncc(NC(=O)c4nn(C(C)C)cc(-c5ccc(F)cc5)c4=O)cn3)c2cc1OC [Compound 34, N-(2-((6,7-dimethoxyquinolin-4-yl)oxy)pyrimidine-5-yl)-5-para-fluorophenyl-1-isopropyl-4-oxo-1,4-dihydropyridazine-3-carboxamide] | 4.62 h | 5 µL/min/mg | 2 nM |
| COc1cc2nccc(Oc3ccc(NC(=O)c4nn(C5CC5)cc(-c5ccc(F)cc5)c4=O)cn3)c2cc1OC [Compound 36] | 5.02 h | 4.6 µL/min/mg | < 1 nM |
| COc1cc2nccc(Oc3ncc(NC(=O)c4nn(C5CC5)cc(-c5ccc(F)cc5)c4=O)cn3)c2cc1OC [Compound 37, 1-cyclopropyl-N-(2-((6,7-dimethoxyquinolin-4-yl)oxy)pyrimidine-5-yl)-5-para-fluorophenyl-4-oxo-1,4-dihydropyridazine-3-carboxamide] | 8.88 h | 2.6 µL/min/mg | < 1 nM |
| COc1cc2nccc(Oc3cnc(NC(=O)c4cn(C(C)C)nc(-c5ccc(F)cc5)c4=O)nc3)c2cc1OC [Compound 39, N-(5-((6,7-dimethoxyquinolin-4-yl)oxy)pyrimidine-2-yl)-6-(4-fluorophenyl)-2-isopropyl-5-oxo-2,5-dihydropyridazine-4-carboxamide] | 57.8 h | 4 µL/min/mg | 3 nM |
| COc1cc2nccc(Oc3ncc(NC(=O)c4cn(C(C)C)nc(-c5ccc(F)cc5)c4=O)cn3)c2cc1OC [Compound 40, N-(2-((6,7-dimethoxyquinolin-4-yl)oxy)pyrimidine-5-yl)-6-(4-fluorophenyl)-2-isopropyl-5-oxo-2,5-dihydropyridazine-4-carboxamide] | 8.88 h | 2.6 µL/min/mg | 12 nM |
